Test results from ChEMBL document CHEMBL3627618, “Rethinking the old antiviral drug moroxydine: Discovery of novel analogues as anti-hepatitis C virus (HCV) agents” (Bioorg Med Chem Lett, 2015).
The source made the active and inactive calls. The rule behind the calls is not given here.

Experiments:
[1] = system: Hepatitis C virus; experiment: (§1) Antiviral activity against HCV JFH1 infected in human HuH7-J20 cells assessed as inhibition of viral life cycle by measuring secreted alkaline phosphatase level at 10 uM preincubated with cells for 1 hr followed by viral inoculation for 3 hrs measured at 72 hrs relative to control; format: functional; settings: Hepacivirus hominis; genotype 2a JFH-1; Huh-7
[2] = Selectivity index, ratio of CC50 for human HuH7-J20 cells expressing secreted alkaline phosphatase reporter gene preincubated for 1 hr followed by fresh drug administration every 24 hrs for 48 hrs to EC50 for HCV JFH1 infected in human HuH7-J20 cells preincubated with cells for 1 hr followed by viral inoculation for 3 hrs and fresh drug administration every 24 hrs at 1/10th of initial concentration for 48 hrs measured at 72 hrs; parameters: species or system Huh-7
[3] = Cytotoxicity against human HuH7-J20 cells expressing secreted alkaline phosphatase reporter gene assessed as cell viability preincubated for 1 hr followed by fresh drug administration every 24 hrs at 1/10th of initial concentration for 48 hrs by WST-1 assay; format: cell-based, Huh-7
[4] = Cytotoxicity against human HuH7-J20 cells expressing secreted alkaline phosphatase reporter gene assessed as cell viability incubated for 1 hr by WST-1 assay; format: cell-based, Huh-7
[5] = system: Hepatitis C virus; experiment: as §1, with “level” for “level at 10 uM”, “hrs and fresh drug administration every 24 hrs at 1/10th of initial concentration for 48 hrs” for “hrs”, “hrs” for “hrs relative to control”; format: functional, cell-based, Hepacivirus hominis; settings: genotype 2a JFH-1, Huh-7
[6] = Selectivity index, ratio of CC50 for human HuH7-J20 cells expressing secreted alkaline phosphatase reporter gene incubated for 1 hr to EC50 for HCV JFH1 infected in human HuH7-J20 cells preincubated with cells for 1 hr followed by viral inoculation for 3 hrs measured at 72 hrs; parameters: species or system Huh-7
[7] = system: Hepatitis C virus; experiment: Antiviral activity against HCV JFH1 infected in human HuH7-J20 cells assessed as inhibition of viral life cycle by measuring secreted alkaline phosphatase level preincubated with cells for 1 hr followed by viral inoculation for 3 hrs measured at 72 hrs; format: functional, cell-based, Hepacivirus hominis; settings: for EC50: genotype 2a JFH-1, Huh-7
[8] = system: Hepatitis C virus; experiment: Antiviral activity against HCV pseudotyped particles infected in human HuH7 cells assessed as reduction of viral entry preincubated with cells for 1 hr followed by viral inoculation for 3 hrs by luciferase reporter gene assay; format: functional, organism-based; settings: Hepacivirus hominis; Huh-7
[9] = Cytotoxicity against human HuH7 assessed as cell viability after 24 hrs by WST-1 assay; format: cell-based; settings: huh-7, 24 h
[10] = system: Hepatitis C virus; experiment: Antiviral activity against HCV JFH1 sub genomic replicon infected in human HuH7 cells assessed as inhibition of viral RNA replication at 10 uM measured after 24 hrs by luciferase reporter gene assay; format: functional, Hepacivirus hominis; settings: genotype 2a JFH-1, Huh-7, 24 h
[11] = Cytotoxicity against human HuH7-J20 cells expressing secreted alkaline phosphatase reporter gene assessed as cell viability at 10 uM incubated for 1 hr by WST-1 assay; format: cell-based; settings: huh-7, 1 h
[12] = system: Hepatitis C virus; experiment: Ratio of EC50 for HCV JFH1 infected in human HuH7-J20 cells preincubated with cells for 1 hr followed by viral inoculation for 3 hrs measured at 72 hrs to EC50 for HCV JFH1 infected in human HuH7-J20 cells preincubated with cells for 1 hr followed by viral inoculation for 3 hrs and fresh drug administration every 24 hrs at 1/10th of initial concentration for 48 hrs measured at 72 hrs; format: functional, Hepacivirus hominis, genotype 2a JFH-1, Huh-7

**Q.** Which inhibition [1] does the source give for `N=C(N)NC(=N)N1CCN(c2ccccc2)CC1` here?
**A.** inactive

**Q.** What does the source list for `Cl.N=C(NC(=O)N1CCN(c2ccccc2)CC1)Nc1ccccc1`?
**A.** Ratio CC50/EC50 [2]: >3.4; CC50 at 48 h [3]: > 30 µM; CC50 at 1 h [4]: > 30 µM; EC50 [5]: 8.7 µM; Ratio CC50/EC50 [6]: 0.5; EC50 [7]: 59.5 µM; Activity [8]: inactive

**Q.** For `Cl.N=C(NC(=O)N1CCN(c2ccccc2)CC1)Nc1ccc(Cl)cc1`, which “Ratio CC50/EC50” value [2] is on record?
**A.** 30.4

**Q.** And the CC50 at 48 h [3]?
**A.** 39.7 µM

**Q.** What about the CC50 at 1 h [4] of the same compound?
**A.** > 30 µM

**Q.** What about the EC50 [5] of the same compound?
**A.** 1.3 µM

**Q.** And the “Ratio CC50/EC50” value [6]?
**A.** >2.68

**Q.** And the Activity [9]?
**A.** Non-toxic

**Q.** What about the inhibition at 10 µM [10] of the same compound?
**A.** ≤ 50%

**Q.** What about the EC50 [7] of the same compound?
**A.** 11.2 µM

**Q.** What about the Activity [8] of the same compound?
**A.** inactive

**Q.** Which Activity [11] does the source give for `Cl.N=C(N)NC(=O)NCCCCN` here?
**A.** Non-toxic

**Q.** What does the source list for `Cl.N=C(NC(=O)N1CCN(c2cc(Cl)cc(Cl)c2)CC1)Nc1ccc(Cl)cc1`?
**A.** Ratio CC50/EC50 [2]: 20.2; CC50 at 48 h [3]: 34.2 µM; CC50 at 1 h [4]: 63 µM; EC50 [5]: 1.69 µM; Ratio CC50/EC50 [6]: 6.06; Activity [9]: Non-toxic; EC50 [7]: 10.4 µM; Activity [8]: inactive

**Q.** With `Cl.N=C(NCc1ccccc1)NC(=O)N1CCN(c2ccccc2)CC1` as the compound, how does the Activity [11] read?
**A.** Non-toxic

**Q.** What about the Activity [8] of the same compound?
**A.** inactive

**Q.** Which Activity [11] does the source give for `Cl.N=C(NC(=O)N1CCN(c2ccc([N+](=O)[O-])cc2)CC1)Nc1ccccc1` here?
**A.** Non-toxic

**Q.** What about the Activity [8] of the same compound?
**A.** inactive

**Q.** For `N=C(N)NC(=N)N1CCOCC1`, which inhibition ([7]; Hepacivirus hominis, genotype 2a JFH-1, Huh-7) is on record?
**A.** inactive

**Q.** Which Activity [11] does the source give for `Cl.N=C(NCc1ccccc1)NC(=O)N1CCN(c2ccc(F)cc2)CC1` here?
**A.** Non-toxic

**Q.** And the Activity [8]?
**A.** inactive

**Q.** With `N=C(N)NC(=N)Nc1ccc(F)cc1` as the compound, how does the inhibition [1] read?
**A.** inactive

**Q.** Which Activity [11] does the source give for `CCOC(=O)CNC(=O)NC(=N)NC(=O)OC(C)(C)C` here?
**A.** Non-toxic

**Q.** For `CC(C)(C)OC(=O)NC(=N)NC(=O)NCc1ccccc1`, which “Ratio CC50/EC50” value [2] is on record?
**A.** 7.99

**Q.** And the CC50 at 48 h [3]?
**A.** 49.3 µM

**Q.** What about the CC50 at 1 h [4] of the same compound?
**A.** 92.9 µM

**Q.** And the EC50 [5]?
**A.** 6.17 µM

**Q.** What about the “Ratio CC50/EC50” value [6] of the same compound?
**A.** 4.25

**Q.** And the “Ratio EC50” value [12]?
**A.** 3

**Q.** And the Activity [9]?
**A.** Non-toxic

**Q.** What about the EC50 [7] of the same compound?
**A.** 21.9 µM

**Q.** What does the source list for `NC(=O)c1ncn([C@@H]2O[C@H](CO)[C@@H](O)[C@H]2O)n1` [RIBAVIRIN]?
**A.** Ratio CC50/EC50 [2]: 0.91; CC50 at 48 h [3]: 30.5 µM; CC50 at 1 h [4]: > 30 µM; EC50 [5]: 33.5 µM; Ratio CC50/EC50 [6]: >1; EC50 [7]: 30.4 µM

**Q.** Which Activity [11] does the source give for `CC(C)(C)OC(=O)/N=C(\NCc1ccccc1)NC(=O)N1CCN(c2ccccc2)CC1` here?
**A.** Non-toxic

**Q.** For `Cl.N=C(NC(=O)N1CCN(c2ccc(C34CC5CC(CC(C5)C3)C4)cc2)CC1)Nc1ccc(Cl)cc1`, which “Ratio CC50/EC50” value [2] is on record?
**A.** 5.54

**Q.** And the CC50 at 48 h [3]?
**A.** 77 µM

**Q.** And the CC50 at 1 h [4]?
**A.** 73 µM

**Q.** What about the EC50 [5] of the same compound?
**A.** 13.9 µM

**Q.** And the “Ratio CC50/EC50” value [6]?
**A.** 7.45

**Q.** And the Activity [9]?
**A.** Non-toxic

**Q.** What about the EC50 [7] of the same compound?
**A.** 9.8 µM

**Q.** What about the Activity [8] of the same compound?
**A.** inactive

**Q.** With `CCOC(=O)CNC(=O)NC(=N)N.Cl` as the compound, how does the Activity [11] read?
**A.** Non-toxic

**Q.** What does the source list for `C=CCNC(=O)NC(=N)NCc1ccccc1.Cl`?
**A.** Activity [11]: Non-toxic; Activity [8]: inactive

**Q.** For `N=C(N)NC(=N)NCc1ccccc1`, which inhibition [1] is on record?
**A.** inactive

**Q.** With `Cl.N=C(N)NC(=O)NCc1ccccc1` as the compound, how does the “Ratio CC50/EC50” value [2] read?
**A.** 9.19

**Q.** What about the CC50 at 48 h [3] of the same compound?
**A.** 325 µM

**Q.** And the CC50 at 1 h [4]?
**A.** 324 µM

**Q.** And the EC50 [5]?
**A.** 35.3 µM

**Q.** What about the “Ratio CC50/EC50” value [6] of the same compound?
**A.** 6.23

**Q.** And the EC50 [7]?
**A.** 52 µM

**Q.** Which inhibition [1] does the source give for `N=C(N)NC(=N)Nc1ccccc1` here?
**A.** inactive

**Q.** What does the source list for `Cl.N=C(NCc1ccccc1)NC(=O)N1CCOCC1`?
**A.** Activity [11]: Non-toxic; Activity [8]: inactive

**Q.** With `Cl.N=C(NCc1ccccc1)NC(=O)N1CCN(c2ccc(Cl)cc2)CC1` as the compound, how does the “Ratio CC50/EC50” value [2] read?
**A.** 14.4

**Q.** And the CC50 at 48 h [3]?
**A.** 34.7 µM

**Q.** And the CC50 at 1 h [4]?
**A.** 64 µM

**Q.** What about the EC50 [5] of the same compound?
**A.** 2.41 µM

**Q.** What about the “Ratio CC50/EC50” value [6] of the same compound?
**A.** 1.4

**Q.** And the Activity [9]?
**A.** Non-toxic

**Q.** And the inhibition at 10 µM [10]?
**A.** ≤ 50%

**Q.** And the EC50 [7]?
**A.** 45.7 µM

**Q.** What about the Activity [8] of the same compound?
**A.** inactive

**Q.** For `CC(C)(C)OC(=O)/N=C(\NCc1ccccc1)NC(=O)N1CCOCC1`, which Activity [11] is on record?
**A.** Non-toxic

**Q.** Which Activity [11] does the source give for `Cl.N=C(NC(=O)N1CCN(c2ccc(Cl)cc2)CC1)Nc1ccccc1` here?
**A.** Non-toxic

**Q.** What about the Activity [8] of the same compound?
**A.** inactive

**Q.** Which “Ratio CC50/EC50” value [2] does the source give for `Cc1ccc(N2CCN(C(=O)NC(=N)Nc3ccccc3)CC2)cc1.Cl` here?
**A.** 4.4

**Q.** And the CC50 at 48 h [3]?
**A.** 21 µM

**Q.** And the CC50 at 1 h [4]?
**A.** 26.4 µM

**Q.** What about the EC50 [5] of the same compound?
**A.** 4.7 µM

**Q.** And the “Ratio CC50/EC50” value [6]?
**A.** 2.82

**Q.** What about the EC50 [7] of the same compound?
**A.** 9.35 µM

**Q.** And the Activity [8]?
**A.** inactive

**Q.** With `Cl.N=C(NC(=O)N1CCN(c2ccc([N+](=O)[O-])cc2)CC1)Nc1ccc(Cl)cc1` as the compound, how does the Activity [11] read?
**A.** Non-toxic

**Q.** And the Activity [8]?
**A.** inactive

**Q.** Which Activity [11] does the source give for `Cl.N=C(NCc1ccccc1)NC(=O)N1CCCC1` here?
**A.** Non-toxic

**Q.** What about the Activity [8] of the same compound?
**A.** inactive

**Q.** What does the source list for `Cc1ccc(N2CCN(C(=O)NC(=N)Nc3ccc(Cl)cc3)CC2)cc1.Cl`?
**A.** Activity [11]: Non-toxic; Activity [8]: inactive

**Q.** For `Cl.N=C(N)NC(=O)N1CCOCC1`, which Activity [11] is on record?
**A.** Non-toxic
